Here are results for one compound from article PMC3976565 (Science (New York, N.Y.), 2013).

The assay has as its target SelA-ΔN (Aquifex aeolicus, UniProt O67140). The assay can be described thus: X-ray crystallography. Format: binding. Conditions: 3.25 A; covalent, Lys285; thiosulfate co-bound.

Sequence of SelA-ΔN (O67140 62-452, stated change not applied): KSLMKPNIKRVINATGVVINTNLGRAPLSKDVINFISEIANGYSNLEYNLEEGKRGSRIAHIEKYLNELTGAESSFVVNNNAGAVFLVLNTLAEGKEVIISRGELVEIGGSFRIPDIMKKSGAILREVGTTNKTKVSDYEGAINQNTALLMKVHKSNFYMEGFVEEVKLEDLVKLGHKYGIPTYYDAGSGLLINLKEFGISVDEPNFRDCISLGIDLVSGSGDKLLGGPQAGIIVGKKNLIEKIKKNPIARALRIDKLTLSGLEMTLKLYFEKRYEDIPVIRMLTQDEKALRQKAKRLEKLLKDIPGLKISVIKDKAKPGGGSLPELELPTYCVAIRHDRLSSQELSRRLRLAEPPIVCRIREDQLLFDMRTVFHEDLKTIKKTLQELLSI

Regarding `Cc1ncc(COP(=O)(O)O)c(C=O)c1O` [PLP], the X-ray crystallography result is “SelA-ΔN in complex with thiosulfate. PLP and thiosulfate ions (TS1 to TS3) are shown”.
